No end group written: not given here.
Columns and labels:
Type in all cases: in vivo, BALB/c mice
[1] = tested on: house dust mite driven model of allergic asthma; assay: prophylactic intranasal versus oral hBD2 in murine house dust mite driven model of allergic asthma (Example 9)
Procedure: To determine and assess the efficacy of prophylactic treatment with intranasal (IN) versus oral defensins in a murine house dust mite driven model of allergic asthma.
Treatment regime: Female 7-10 weeks old BALB/c mice were randomly allocated into 5 study groups one day prior to study start and subcutaneously (SC) sensitized to house dust mite (100 μg HDM in 200 μL saline plus Freund's complete adjuvant in 0.9% saline). The mice were treated with hBD2 orally and intranasally respectively at a dose of 1.2 mg/kg/day (0.4 mg/kg TID) starting on day 12 in the morning and continued TID at approximately 6 hours intervals. The last dose was administered on day 14 one hour prior to challenge. The total number of doses were […] hBD2. Mice were then intranasally (IN) challenged with HDM on day 14 (HDM 25 μg in 50 μL of saline) (FIG. 4).
Airway inflammation: At 48 hours post challenge, bronchoalveolar lavage was performed washing the lungs with 3 volumes of cold PBS (0.4; 0.3 and 0.3 mL, total 1 mL). Total and differential leucocyte cell counts were determined on an automated haematological analyser Sysmex XT-2000iV.
Lung function: Starting 48 hours after HDM challenge, measurements of lung resistance and lung compliance were carried out after methacholine challenge (3.125 MCH1; 6.25 MCH2; 12.5 MCH3 and 25 mg/mL MCH4) by anaesthetized, cannulated mice using DSI's Buxco Finepoint RC system. Data are represented as airway resistance at […] methacholine and as dose responsive curves.
Lung sampling for cytokine analysis: After completion of every BAL, lungs were removed from the thorax, snap frozen in liquid nitrogen and stored frozen at −80 degrees Celsius until analysis of cytokine concentration of TNF-α, IL-4, IL-5, IL-6, IL-9, IL-13 and IL-33 in lung homogenate by ELISA.

[2] = tested on: acute graft versus host disease following stem cell transplantation; assay: prophylactic oral hBD-2 versus cyclosporine in murine model of acute graft versus host disease (Example 14)
Procedure: To determine and assess the efficacy of prophylactic treatment with oral hBD-2 versus cyclosporine in a murine model of acute graft versus host disease following stem cell transplantation.
Treatment regime: 20 female BALB/c mice were irradiated with 4.5 Gy (2×498 sec) at intervals of at least 4 hours on day 0. Bone marrow was harvested: hind limbs harvested from 2 female WT C57BL/6 mice aseptically. Skeletal muscle was removed and epiphysis cut away. Lumen of bone flushed with PBS and cells pelleted and taken up. Harvest of T-cells: spleens from 2 female WT C57BL/6 mice were meshed through a […] cell strainer into a PBS filled dish. Cells were taken up in PBS and transferred into a 50 mL falcon tube and spun down. Cells were taken up in 1 mL PBS and 20 μL of CD4 microbead+20 μL CD8 microbeads per spleen added for incubation for 20 min at 4 degrees C. Cells were washed with PBS and applied to MACS separation in order to positively select CD4+ and CD8+ cells. Positively selected T-cells were counted and taken up. Transplantation: directly after the second irradiation, all WT BALB/c recipient mice were injected with 5×1.000.000 BM cells (50 μL) i.v. into the retroorbital venous plexus under isoflurane anesthesia. 20 BALB/c mice were treated with 1.2 mg of hBD2/kg BW/day (n=7); 50 mg cyclosporine/kg BW on days 0, 3, 6 and 9 (n=7) or 100 μL PBS per day vial oral gavage (n=6) from day 0-10.
The mice were weighed at regular intervals during the study and survival was monitored for 90 days.

[3] = tested on: acute graft versus host disease following stem cell transplantation; assay: prophylactic oral HD5 or hBD-2 in murine model of acute graft versus host disease (Example 15)
Procedure: To determine and assess the efficacy of prophylactic treatment with oral HD5 in a murine model of acute graft versus host disease following stem cell transplantation.
Treatment regime: 22 female BALB/c mice were irradiated with 4.5 Gy (2×498 sec) at intervals of at least 4 hours on day 0. Bone marrow was harvested: hind limbs harvested from 2 female WT C57BL/6 mice aseptically. Skeletal muscle was removed and epiphysis cut away. Lumen of bone flushed with PBS and cells pelleted and taken up. Harvest of T-cells: spleens from 2 female WT C57BL/6 mice were meshed through a […] cell strainer into a PBS filled dish. Cells were taken up in PBS and transferred into a 50 mL falcon tube and spun down. Cells were taken up in 1 mL PBS and 20 μL of CD4 microbead+20 μL CD8 microbeads per spleen added for incubation for 20 min at 4 degrees C. Cells were washed with PBS and applied to MACS separation in order to positively select CD4+ and CD8+ cells. Positively selected T-cells were counted and taken up. Transplantation: directly after the second irradiation, all WT BALB/c recipient mice were injected with 5×1.000.000 BM cells (50 μL) i.v. into the retroorbital venous plexus under isoflurane anesthesia. 22 BALB/c mice were treated with 1.2 mg of HD5/kg BW/day; 1.2 mg of hBD-2/kg BW/day or 100 μL of PBS per day vial oral gavage from day 0-10.
Survival was monitored for 60 days.

[4] = hBD2 both oral and intranasal TID, day 12 to day 14 (total 2.0 mg/kg in 8 administrations), versus HDM challenged vehicle
[5] = intranasally administered, not statistically significantly different from the control

In the case of “human beta defensin 2 (GIGDPVTCLKSGAICHPVFCPRRYKQIGTCGLPGTKCCKKP; not fully specified (bridges); ends and bridges not checked; listed as Homo sapiens) [hBD2]”, the airway resistance [1, 4] was “effectively inhibited the increase of airway resistance”, the pulmonary compliance [1, 4] was “effectively inhibited” and the “IL-4 in lung tissue homogenates” value [1, 5] was “trend towards lowering”. For the same substance, the “IL-5 in lung tissue homogenates” value [1, 5] was “trend towards lowering”, the “IL-6 in lung tissue homogenates” value [1, 5] was “trend towards lowering” and the “IL-9 in lung tissue homogenates” value [1, 5] was “trend towards lowering”. For the same substance, the “IL-13 in lung tissue homogenates” value [1, 5] was “trend towards lowering”, the “TNF-α in lung tissue homogenates” value [1, 5] was “trend towards lowering” and the “IL-4 concentration in lung tissue homogenates” value ([1]; oral administration) was “complete normalization of cytokine concentrations”. For the same substance, the “IL-6 concentration in lung tissue homogenates” value ([1]; oral administration) was “complete normalization of cytokine concentrations”, the “IL-9 concentration in lung tissue homogenates” value ([1]; oral administration) was “complete normalization of cytokine concentrations” and the “IL-13 concentration in lung tissue homogenates” value ([1]; oral administration) was “complete normalization of cytokine concentrations”. For the same substance, the “L-5 (31c) concentration in lung tissue homogenates” value ([1]; oral administration) was “complete normalization of cytokine concentrations”, the “TNF-α concentration in lung tissue homogenates” value ([1]; oral administration) was “complete normalization of cytokine concentrations” and the “neutrophil counts in BALF” value ([1]; oral application) was “significantly inhibited neutrophil counts”. The mortality ([2]; FIG. 56, 7 mice treated with oral hBD-2 for 10 days) was “statistically significant reduction of mortality”, the “weight loss following bone marrow transplantation” value ([2]; compared with PBS treated mice) was “lost statistically significantly less weight” and the “treated animals that had died by day 90” value ([2]; oral hBD-2 1.2 mg/kg/day day 0-10 (n=7), cyclosporine 50 mg/kg on days 0, 3, 6 and 9 (n=7), all but one of PBS mice (n=6) died) was 1. The mortality ([3]; FIG. 58, oral treatment for 10 days from day of stem cell transplantation) was “significant reduction of mortality” and the “treated animals that had died by day 60” value ([3]; oral 1.2 mg/kg/day day 0-10, six out of eight PBS mice died) was “none”.

Source: patent US20200291082A1, “PREVENTION AND TREATMENT OF GRAFT-VERSUS-HOST-DISEASE WITH DEFENSINS” (priority 2017, published 2020)
